Counter-ions that a name gives are not always drawn.
target: T1, IRAK4 (Homo sapiens, UniProt Q9NWZ3); assay: 2-hour 1 mM ATP IRAK4 Biochemical assay (as above, but with 100 pM IRAK4 and 1 mM ATP); conditions: IRAK4 MSD BIOCHEMICAL (1 mM ATP) IC50 (μM), 100 pM IRAK4, 2 hours
T1 sequence (Q9NWZ3 1-460): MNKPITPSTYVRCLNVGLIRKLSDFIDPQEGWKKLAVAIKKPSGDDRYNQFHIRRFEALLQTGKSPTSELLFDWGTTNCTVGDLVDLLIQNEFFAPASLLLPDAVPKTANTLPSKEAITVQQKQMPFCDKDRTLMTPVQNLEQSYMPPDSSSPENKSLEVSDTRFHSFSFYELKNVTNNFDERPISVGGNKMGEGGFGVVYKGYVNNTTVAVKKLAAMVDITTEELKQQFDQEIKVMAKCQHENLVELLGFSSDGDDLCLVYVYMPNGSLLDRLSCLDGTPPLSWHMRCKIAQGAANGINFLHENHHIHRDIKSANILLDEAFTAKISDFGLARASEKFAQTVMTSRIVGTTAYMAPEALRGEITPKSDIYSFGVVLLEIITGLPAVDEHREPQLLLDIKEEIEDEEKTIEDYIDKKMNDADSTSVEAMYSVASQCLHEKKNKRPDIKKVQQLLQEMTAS
In short: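 Run with 100 pM IRAK4 and 1 mM ATP for 2 hours, quenched with EDTA pH 8. Phosphorylated biotinylated peptide captured on streptavidin MSD plates and detected with anti-phosphothreonine antibody plus Sulfo-Tag secondary by electrochemiluminescence.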

Structure (SMILES) | IC50
CC(C)Oc1nc2nc(C34COC(C)(C3)C4)cn2cc1NC(=O)c1cccc(C2CCOC2)n1 (centres unmarked) [Example 493, N-(7-isopropoxy-2-(1-methyl-2-oxabicyclo[2.1.1]hexan-4-yl)imidazo[1,2-a]pyrimidin-6-yl)-6-(tetrahydrofuran-3-yl)picolinamide] | 0.001 µM
CC(C)Oc1nc2nc(C34COC(C)(C3)C4)cn2cc1NC(=O)c1cccc(OC2CC2)n1 [Example 494, 6-cyclopropoxy-N-(7-isopropoxy-2-(1-methyl-2-oxabicyclo[2.1.1]hexan-4-yl)imidazo[1,2-a]pyrimidin-6-yl)picolinamide] | 0.006 µM
CC(C)Oc1nc2nc(C34COC(C)(C3)C4)cn2cc1NC(=O)c1ccnc2ccnn12 [Example 495, N-(7-isopropoxy-2-(1-methyl-2-oxabicyclo[2.1.1]hexan-4-yl)imidazo[1,2-a]pyrimidin-6-yl)pyrazolo[1,5-a]pyrimidine-7-carboxamide] | 0.007 µM
CC(C)Oc1nc2nc(C34COC(C)(C3)C4)cn2cc1NC(=O)c1cccn(C(F)F)c1=O [Example 496, 1-(difluoromethyl)-N-(7-isopropoxy-2-(1-methyl-2-oxabicyclo[2.1.1]hexan-4-yl)imidazo[1,2-a]pyrimidin-6-yl)-2-oxo-1,2-dihydropyridine-3-carboxamide 2,2,2-trifluoroacetate] | 0.001 µM
CC(C)Oc1nc2nc(C34COC(C)(C3)C4)cn2cc1NC(=O)c1ccn(C)n1 [Example 497, N-(7-isopropoxy-2-(1-methyl-2-oxabicyclo[2.1.1]hexan-4-yl)imidazo[1,2-a]pyrimidin-6-yl)-1-methyl-1H-pyrazole-3-carboxamide] | 0.006 µM
CC(C)Oc1nc2nc(C34COC(C)(C3)C4)cn2cc1NC(=O)c1ccn(C(F)F)n1 [Example 498, 1-(difluoromethyl)-N-(7-isopropoxy-2-(1-methyl-2-oxabicyclo[2.1.1]hexan-4-yl)imidazo[1,2-a]pyrimidin-6-yl)-1H-pyrazole-3-carboxamide] | 0.001 µM
CC(C)Oc1nc2nc(C34COC(C)(C3)C4)cn2cc1NC(=O)c1csc(C(F)(F)F)n1 [Example 499, N-(7-isopropoxy-2-(1-methyl-2-oxabicyclo[2.1.1]hexan-4-yl)imidazo[1,2-a]pyrimidin-6-yl)-2-(trifluoromethyl)thiazole-4-carboxamide] | 0.001 µM
CC(C)Oc1nc2nc(C3C4COCC43)cn2cc1NC(=O)c1ccn(C)n1 (centres unmarked) [Example 500, N-(2-(3-oxabicyclo[3.1.0]hexan-6-yl)-7-isopropoxyimidazo[1,2-a]pyrimidin-6-yl)-1-methyl-1H-pyrazole-3-carboxamide Hydrochloride] | 0.005 µM
CC(C)Oc1nc2nc(C3C4COCC43)cn2cc1NC(=O)c1ccn(C(C)C)n1 (centres unmarked) [Example 501, N-(2-(3-oxabicyclo[3.1.0]hexan-6-yl)-7-isopropoxyimidazo[1,2-a]pyrimidin-6-yl)-1-isopropyl-1H-pyrazole-3-carboxamide hydrochloride] | 0.002 µM
CC(C)Oc1nc2nc(C3C4COCC43)cn2cc1NC(=O)c1ccn(CC(F)F)n1 (centres unmarked) [Example 503, N-(2-(3-oxabicyclo[3.1.0]hexan-6-yl)-7-isopropoxyimidazo[1,2-a]pyrimidin-6-yl)-1-(2,2-difluoroethyl)-1H-pyrazole-3-carboxamide] | 0.002 µM
CC(C)Oc1nc2nc(C3C4COCC43)cn2cc1NC(=O)c1coc(C(C)C)n1 (centres unmarked) [Example 504, N-(2-(3-oxabicyclo[3.1.0]hexan-6-yl)-7-isopropoxyimidazo[1,2-a]pyrimidin-6-yl)-2-isopropyloxazole-4-carboxamide] | 0.002 µM
COc1ncccc1C(=O)Nc1cn2cc(C34COC(C)(C3)C4)nc2nc1OC1CC1 [Example 505, N-(7-cyclopropoxy-2-(1-methyl-2-oxabicyclo[2.1.1]hexan-4-yl)imidazo[1,2-a]pyrimidin-6-yl)-2-methoxynicotinamide 2,2,2-trifluoroacetate] | 0.007 µM
COc1cc2nc(C34COC(C)(C3)C4)cn2cc1NC(=O)c1cccc(C(F)F)n1 [Example 515, 6-(difluoromethyl)-N-(7-methoxy-2-(1-methyl-2-oxabicyclo[2.1.1]hexan-4-yl)imidazo[1,2-a]pyridin-6-yl)picolinamide 2,2,2-trifluoroacetate] | 0.001 µM
CCOc1cc2nc(C34COCC3C4)cn2cc1NC(=O)c1cccc(C(F)F)n1 (centres unmarked) [Example 518, N-(2-(3-oxabicyclo[3.1.0]hexan-1-yl)-7-ethoxyimidazo[1,2-a]pyridin-6-yl)-6-(difluoromethyl)picolinamide] | 0.001 µM
CC(C)Oc1cc2nc(-c3ccnn3C)cn2cc1NC(=O)c1cccc(C(F)F)n1 [Example 525, 6-(difluoromethyl)-N-(7-isopropoxy-2-(1-methyl-1H-pyrazol-5-yl)imidazo[1,2-a]pyridin-6-yl)picolinamide] | 0.002 µM
CC(C)Oc1cc2nc(C3CC3)cn2cc1NC(=O)c1cccc(C(F)F)n1 [Example 526, N-(2-cyclopropyl-7-isopropoxyimidazo[1,2-a]pyridin-6-yl)-6-(difluoromethyl)picolinamide] | 0.001 µM
COCC(C)(C)c1cn2cc(NC(=O)c3cccc(C(F)F)n3)c(OC(C)C)cc2n1 [Example 527, 6-(difluoromethyl)-N-(7-isopropoxy-2-(1-methoxy-2-methylpropan-2-yl)imidazo[1,2-a]pyridin-6-yl)picolinamide] | 0.003 µM
CC(C)Oc1cc2nc(C3CC3)cn2cc1NC(=O)c1ccn(C(F)F)n1 [Example 528, N-(2-cyclopropyl-7-isopropoxyimidazo[1,2-a]pyridin-6-yl)-1-(difluoromethyl)-1H-pyrazole-3-carboxamide] | 0.004 µM
Cc1nc(C(=O)Nc2cn3cc(C45COC(C)(C4)C5)nc3cc2OC(C)C)co1 [Example 529, N-(7-isopropoxy-2-(1-methyl-2-oxabicyclo[2.1.1]hexan-4-yl)imidazo[1,2-a]pyridin-6-yl)-2-methyloxazole-4-carboxamide] | 0.001 µM
CC(C)Oc1cc2nc(C3CCOC3)cn2cc1NC(=O)c1cccc(C(F)F)n1 (centres unmarked) [Example 530, 6-(difluoromethyl)-N-(7-isopropoxy-2-(tetrahydrofuran-3-yl)imidazo[1,2-a]pyridin-6-yl)picolinamide 2,2,2-trifluoroacetate] | 0.045 µM
COc1cc(NC(=O)c2cccc(C(F)F)n2)cn2cc(C34CC(F)(C3)C4)nc12 [Example 535, 6-(difluoromethyl)-N-(2-(3-fluorobicyclo[1.1.1]pentan-1-yl)-8-methoxyimidazo[1,2-a]pyridin-6-yl)picolinamide] | 0.05 µM
CC(C)Oc1cc2nc(-c3cccc(F)c3)cn2cc1NC(=O)c1cccc(C(F)F)n1 [Example 538, 6-(difluoromethyl)-N-(2-(3-fluorophenyl)-7-isopropoxyimidazo[1,2-a]pyridin-6-yl)picolinamide 2,2,2-trifluoroacetate] | 0.003 µM
CC(C)Oc1cc2nc(C34CC(F)(C3)C4)cn2cc1NC(=O)c1cccc(C(F)(F)F)n1 [Example 539, N-(2-(3-fluorobicyclo[1.1.1]pentan-1-yl)-7-isopropoxyimidazo[1,2-a]pyridin-6-yl)-6-(trifluoromethyl)picolinamide 2,2,2-trifluoroacetate] | 0.002 µM

From US20220089592A1, “IMIDAZO[1,2-A]PYRIDINYL DERIVATIVES AS IRAK4 INHIBITORS” (priority 2019, published 2022)
